ChEMBL document CHEMBL4041549, “Tetrahydroisoquinoline-7-carboxamide Derivatives as New Selective Discoidin Domain Receptor 1 (DDR1) Inhibitors” (ACS Med Chem Lett, 2017)
Active and inactive are the calls of the source. The calls are words filed in the database; no cut-off is given here.

Legend:
[1] = target: Mast/stem cell growth factor receptor Kit (Homo sapiens, UniProt P10721); test: Inhibition of recombinant human His-tagged c-kit cytoplasmic domain (544 to 976 residues) expressed in baculovirus expression system using […] as substrate measured after 1 hr by FRET-based Z'-Lyte assay
Mast/stem cell growth factor receptor Kit, sequence (P10721 whole entry, the tested form may be a part): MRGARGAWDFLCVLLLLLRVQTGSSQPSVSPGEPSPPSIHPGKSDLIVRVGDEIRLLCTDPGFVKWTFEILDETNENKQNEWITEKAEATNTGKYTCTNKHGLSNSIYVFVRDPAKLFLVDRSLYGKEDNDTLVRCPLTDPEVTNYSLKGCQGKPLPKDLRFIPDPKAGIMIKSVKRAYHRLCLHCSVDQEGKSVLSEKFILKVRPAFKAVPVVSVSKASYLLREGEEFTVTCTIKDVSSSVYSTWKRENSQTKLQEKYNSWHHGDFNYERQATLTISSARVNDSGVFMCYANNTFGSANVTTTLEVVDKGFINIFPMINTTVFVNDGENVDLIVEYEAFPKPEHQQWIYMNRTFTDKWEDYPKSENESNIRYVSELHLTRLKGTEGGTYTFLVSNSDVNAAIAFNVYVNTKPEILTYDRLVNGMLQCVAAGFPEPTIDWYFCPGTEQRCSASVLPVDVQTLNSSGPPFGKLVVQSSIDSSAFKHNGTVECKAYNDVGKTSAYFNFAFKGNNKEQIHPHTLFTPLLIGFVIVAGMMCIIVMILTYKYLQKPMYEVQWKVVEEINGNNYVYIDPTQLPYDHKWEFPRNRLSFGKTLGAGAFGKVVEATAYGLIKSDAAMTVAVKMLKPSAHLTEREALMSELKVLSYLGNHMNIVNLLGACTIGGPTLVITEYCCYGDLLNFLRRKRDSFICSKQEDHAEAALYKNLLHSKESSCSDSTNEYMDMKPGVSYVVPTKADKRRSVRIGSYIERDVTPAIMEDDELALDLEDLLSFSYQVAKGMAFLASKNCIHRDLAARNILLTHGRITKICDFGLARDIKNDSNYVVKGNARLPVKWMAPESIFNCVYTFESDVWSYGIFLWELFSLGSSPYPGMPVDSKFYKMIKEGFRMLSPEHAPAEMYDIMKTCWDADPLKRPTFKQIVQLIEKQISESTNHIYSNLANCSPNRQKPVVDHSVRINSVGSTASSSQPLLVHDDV

[2] = target: T1, Epithelial discoidin domain-containing receptor 1 (Homo sapiens, UniProt Q08345); test: Inhibition of recombinant human GST-tagged DDR1 catalytic domain expressed in baculovirus expression system using Fluorescein-Poly GAT as substrate measured after 1 hr by TR-FRET assay
T1 sequence (Q08345 whole entry, the tested form may be a part): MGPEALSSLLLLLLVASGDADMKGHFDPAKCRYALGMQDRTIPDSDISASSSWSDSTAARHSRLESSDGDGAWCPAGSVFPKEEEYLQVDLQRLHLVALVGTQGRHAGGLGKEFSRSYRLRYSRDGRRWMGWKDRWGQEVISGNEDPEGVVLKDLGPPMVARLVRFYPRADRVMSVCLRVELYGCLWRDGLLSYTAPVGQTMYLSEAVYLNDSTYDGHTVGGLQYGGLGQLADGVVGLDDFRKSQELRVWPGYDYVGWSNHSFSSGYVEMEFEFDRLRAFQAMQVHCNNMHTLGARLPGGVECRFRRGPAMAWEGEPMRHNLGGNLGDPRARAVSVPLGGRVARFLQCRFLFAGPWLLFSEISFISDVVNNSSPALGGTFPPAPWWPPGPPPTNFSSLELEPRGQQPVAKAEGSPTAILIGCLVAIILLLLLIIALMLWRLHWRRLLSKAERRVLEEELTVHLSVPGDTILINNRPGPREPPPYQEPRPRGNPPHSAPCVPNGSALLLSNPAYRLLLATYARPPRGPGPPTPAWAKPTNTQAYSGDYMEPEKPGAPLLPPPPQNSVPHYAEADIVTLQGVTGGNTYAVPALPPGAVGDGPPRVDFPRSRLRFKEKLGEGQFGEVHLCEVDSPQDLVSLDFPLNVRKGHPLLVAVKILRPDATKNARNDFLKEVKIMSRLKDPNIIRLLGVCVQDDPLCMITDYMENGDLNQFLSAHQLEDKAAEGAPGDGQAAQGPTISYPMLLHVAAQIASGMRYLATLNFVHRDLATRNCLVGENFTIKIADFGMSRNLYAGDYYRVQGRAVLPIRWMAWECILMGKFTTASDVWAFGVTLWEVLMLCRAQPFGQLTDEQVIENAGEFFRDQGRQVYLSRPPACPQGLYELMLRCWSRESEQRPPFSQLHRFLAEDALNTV

Bcr/Abl fusion protein = Bcr/Abl fusion protein (Homo sapiens, UniProt P00519); test: Inhibition of recombinant human full length His-tagged Bcr-Abl fusion protein cytoplasmic domain expressed in baculovirus expression system using tyrosine-2 as substrate measured after 1 hr by FRET-based Z'-Lyte assay
Bcr/Abl fusion protein, sequence (P00519 whole entry, the tested form may be a part): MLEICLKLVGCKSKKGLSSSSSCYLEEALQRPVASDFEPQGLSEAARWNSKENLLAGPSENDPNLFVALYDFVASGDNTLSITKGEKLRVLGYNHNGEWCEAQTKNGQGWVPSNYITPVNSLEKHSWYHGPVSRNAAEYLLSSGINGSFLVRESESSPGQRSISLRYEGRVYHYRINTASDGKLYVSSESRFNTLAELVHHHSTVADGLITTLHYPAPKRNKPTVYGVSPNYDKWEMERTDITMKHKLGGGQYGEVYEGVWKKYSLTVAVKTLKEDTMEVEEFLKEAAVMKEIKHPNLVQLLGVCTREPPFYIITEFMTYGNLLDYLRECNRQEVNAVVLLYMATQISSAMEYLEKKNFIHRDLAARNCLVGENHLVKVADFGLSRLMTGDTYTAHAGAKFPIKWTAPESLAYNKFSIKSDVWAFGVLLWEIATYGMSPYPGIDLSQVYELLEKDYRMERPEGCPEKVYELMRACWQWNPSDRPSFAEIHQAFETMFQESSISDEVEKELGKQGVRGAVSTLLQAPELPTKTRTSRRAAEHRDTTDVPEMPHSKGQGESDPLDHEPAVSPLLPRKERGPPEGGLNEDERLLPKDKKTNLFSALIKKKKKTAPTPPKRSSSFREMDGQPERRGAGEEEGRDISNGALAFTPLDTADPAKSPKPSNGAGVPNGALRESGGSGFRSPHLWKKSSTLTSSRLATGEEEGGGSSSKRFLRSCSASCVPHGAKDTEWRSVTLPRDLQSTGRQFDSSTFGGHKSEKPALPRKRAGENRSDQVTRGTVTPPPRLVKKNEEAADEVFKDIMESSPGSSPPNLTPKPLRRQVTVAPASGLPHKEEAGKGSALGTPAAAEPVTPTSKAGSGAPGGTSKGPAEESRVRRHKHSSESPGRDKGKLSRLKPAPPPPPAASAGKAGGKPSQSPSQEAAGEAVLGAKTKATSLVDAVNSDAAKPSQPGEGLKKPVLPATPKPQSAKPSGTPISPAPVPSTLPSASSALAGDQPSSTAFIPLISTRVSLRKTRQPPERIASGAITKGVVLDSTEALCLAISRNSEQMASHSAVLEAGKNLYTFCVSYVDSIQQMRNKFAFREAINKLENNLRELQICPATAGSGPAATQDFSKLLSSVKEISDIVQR
Bcr/Abl fusion protein, sequence (P11274 whole entry, further chain, the tested form may be a part): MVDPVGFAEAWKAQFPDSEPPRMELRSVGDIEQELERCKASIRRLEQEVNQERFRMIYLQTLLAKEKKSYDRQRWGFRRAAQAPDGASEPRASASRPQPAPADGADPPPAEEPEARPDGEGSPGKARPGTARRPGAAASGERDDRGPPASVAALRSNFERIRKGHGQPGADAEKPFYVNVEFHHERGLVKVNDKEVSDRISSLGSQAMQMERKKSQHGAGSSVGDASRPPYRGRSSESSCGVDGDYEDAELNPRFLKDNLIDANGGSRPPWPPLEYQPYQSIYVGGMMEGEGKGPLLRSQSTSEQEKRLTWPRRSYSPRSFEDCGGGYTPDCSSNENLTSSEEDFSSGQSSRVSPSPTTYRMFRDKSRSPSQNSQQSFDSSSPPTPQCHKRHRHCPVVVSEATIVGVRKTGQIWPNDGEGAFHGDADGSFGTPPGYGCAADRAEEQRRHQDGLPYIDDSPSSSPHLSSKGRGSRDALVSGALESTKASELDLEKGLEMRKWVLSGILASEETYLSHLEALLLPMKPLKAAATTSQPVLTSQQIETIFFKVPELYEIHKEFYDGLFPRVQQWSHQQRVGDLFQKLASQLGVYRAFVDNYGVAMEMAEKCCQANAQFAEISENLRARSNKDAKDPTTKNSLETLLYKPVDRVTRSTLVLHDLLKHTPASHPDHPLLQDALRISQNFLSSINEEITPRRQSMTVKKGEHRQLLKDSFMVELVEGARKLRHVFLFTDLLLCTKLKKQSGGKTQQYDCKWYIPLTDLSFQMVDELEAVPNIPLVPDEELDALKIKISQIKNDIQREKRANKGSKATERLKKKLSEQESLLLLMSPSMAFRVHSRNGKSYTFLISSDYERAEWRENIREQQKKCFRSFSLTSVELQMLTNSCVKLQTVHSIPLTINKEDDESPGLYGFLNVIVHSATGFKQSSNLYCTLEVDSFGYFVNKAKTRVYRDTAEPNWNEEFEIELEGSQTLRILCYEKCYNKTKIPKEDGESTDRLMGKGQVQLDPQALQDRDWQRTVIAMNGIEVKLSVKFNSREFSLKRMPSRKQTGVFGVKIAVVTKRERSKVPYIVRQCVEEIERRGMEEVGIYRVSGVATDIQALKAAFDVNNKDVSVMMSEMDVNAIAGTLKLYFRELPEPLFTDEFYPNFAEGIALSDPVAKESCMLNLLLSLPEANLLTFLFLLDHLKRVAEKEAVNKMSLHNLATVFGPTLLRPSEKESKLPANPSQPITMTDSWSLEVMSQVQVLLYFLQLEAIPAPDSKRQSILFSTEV

[3] = target: T2, Discoidin domain-containing receptor 2 (Homo sapiens, UniProt Q16832); test: Inhibition of recombinant human GST-tagged DDR2 cytoplasmic domain expressed in baculovirus expression system using Fluorescein-Poly GAT as substrate measured after 1 hr by TR-FRET assay
T2 sequence (Q16832 whole entry): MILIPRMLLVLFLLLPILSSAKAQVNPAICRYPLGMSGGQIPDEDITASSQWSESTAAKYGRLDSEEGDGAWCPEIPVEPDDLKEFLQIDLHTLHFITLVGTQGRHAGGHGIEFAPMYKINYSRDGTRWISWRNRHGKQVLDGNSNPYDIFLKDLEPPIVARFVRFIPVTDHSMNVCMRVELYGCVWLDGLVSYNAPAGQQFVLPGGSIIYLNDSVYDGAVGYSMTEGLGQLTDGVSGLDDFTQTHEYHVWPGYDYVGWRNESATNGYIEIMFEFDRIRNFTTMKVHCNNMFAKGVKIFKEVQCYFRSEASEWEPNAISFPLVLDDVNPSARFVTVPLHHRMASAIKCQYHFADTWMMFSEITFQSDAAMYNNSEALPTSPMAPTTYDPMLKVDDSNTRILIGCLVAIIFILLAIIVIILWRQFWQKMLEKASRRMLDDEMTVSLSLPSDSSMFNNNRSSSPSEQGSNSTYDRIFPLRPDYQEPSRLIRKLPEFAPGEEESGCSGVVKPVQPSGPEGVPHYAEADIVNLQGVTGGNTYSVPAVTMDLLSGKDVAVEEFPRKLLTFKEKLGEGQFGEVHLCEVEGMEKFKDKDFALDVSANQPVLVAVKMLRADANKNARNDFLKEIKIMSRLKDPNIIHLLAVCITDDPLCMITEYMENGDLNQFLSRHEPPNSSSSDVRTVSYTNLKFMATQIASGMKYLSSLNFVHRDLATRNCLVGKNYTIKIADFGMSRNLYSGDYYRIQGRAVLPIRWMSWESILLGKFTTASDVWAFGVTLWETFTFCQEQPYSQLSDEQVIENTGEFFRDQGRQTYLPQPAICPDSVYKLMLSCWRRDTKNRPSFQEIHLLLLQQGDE

Peritoneal macrophage [4] = test: Anti-inflammatory activity in C57BL/6 mouse primary peritoneal macrophages assessed as inhibition of LPS-induced TNF-alpha production by ELISA method; type: functional, cell-based
[5] = target: T1, Epithelial discoidin domain-containing receptor 1; test: Binding affinity to human DNA-tagged DDR1 expressed in bacterial expression system measured after 1 hr by quantitative PCR analysis
[6] = target: NT-3 growth factor receptor (Homo sapiens) (UniProt Q16288); test: Binding affinity to human DNA-tagged TrkC measured after 1 hr by quantitative PCR analysis
NT-3 growth factor receptor (Homo sapiens), sequence (Q16288 32-839 limits assumed): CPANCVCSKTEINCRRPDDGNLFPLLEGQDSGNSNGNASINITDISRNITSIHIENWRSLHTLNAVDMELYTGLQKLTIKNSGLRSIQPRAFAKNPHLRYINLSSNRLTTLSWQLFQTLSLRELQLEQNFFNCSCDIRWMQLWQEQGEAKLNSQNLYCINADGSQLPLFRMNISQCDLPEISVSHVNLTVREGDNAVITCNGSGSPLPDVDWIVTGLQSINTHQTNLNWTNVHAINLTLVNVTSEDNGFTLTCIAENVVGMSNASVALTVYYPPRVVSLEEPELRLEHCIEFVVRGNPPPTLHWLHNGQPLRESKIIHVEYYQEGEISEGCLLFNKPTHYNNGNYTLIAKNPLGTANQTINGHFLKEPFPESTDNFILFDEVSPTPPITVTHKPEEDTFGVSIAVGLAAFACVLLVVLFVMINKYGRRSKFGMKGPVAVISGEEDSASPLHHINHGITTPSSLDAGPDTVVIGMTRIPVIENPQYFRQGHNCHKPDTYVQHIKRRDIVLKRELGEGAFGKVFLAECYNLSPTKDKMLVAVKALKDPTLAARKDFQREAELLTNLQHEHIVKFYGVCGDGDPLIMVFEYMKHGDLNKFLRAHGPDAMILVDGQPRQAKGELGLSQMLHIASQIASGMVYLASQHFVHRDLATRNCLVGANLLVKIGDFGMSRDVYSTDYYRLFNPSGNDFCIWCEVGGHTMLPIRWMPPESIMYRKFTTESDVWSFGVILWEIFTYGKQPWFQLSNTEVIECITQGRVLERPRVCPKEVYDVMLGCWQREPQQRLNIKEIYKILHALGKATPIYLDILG

Mus musculus [7] = test: Anti-inflammatory activity in po dosed LPS-induced C57BL/6 mouse acute lung injury model assessed as reduction in total number of cells in bronchoalveolar lavage fluid pretreated for 7 days followed by LPS challenge measured after 6 hrs by cell counter; type: functional, organism-based
Mus musculus [8] = test: Anti-inflammatory activity in LPS-induced C57BL/6 mouse acute lung injury model assessed as reduction in pathological changes at 20 to 40 mg/kg, po bid pretreated for 7 days followed LPS challenge measured after 6 hrs hematoxylin and eosin staining based microscopy; type: functional, organism-based
[9] = target: T1, Epithelial discoidin domain-containing receptor 1; details: 1 uM
Mus musculus [10] = test: Anti-inflammatory activity in LPS-induced C57BL/6 mouse acute lung injury model assessed as reduction in lung wet/dry ratio at 20 to 40 mg/kg, po bid pretreated for 7 days followed by LPS challenge measured after 6 hrs; type: functional, organism-based
Peritoneal macrophage [11] = test: Anti-inflammatory activity in C57BL/6 mouse primary peritoneal macrophages assessed as inhibition of LPS-induced IL-6 production by ELISA method; type: functional, cell-based
Mus musculus [12] = test: Anti-inflammatory activity in po dosed LPS-induced C57BL/6 mouse acute lung injury model assessed as reduction in total protein concentration in bronchoalveolar lavage fluid pretreated for 7 days followed by LPS challenge measured after 6 hrs; type: functional, organism-based
[13] = target: BDNF/NT-3 growth factors receptor (Homo sapiens) (UniProt Q16620); test: Binding affinity to human DNA-tagged TrkB measured after 1 hr by quantitative PCR analysis

Row | Compound | IC50 [1] [µM] | IC50 [2] [µM] | IC50 (Bcr/Abl fusion protein) [µM] | IC50 [3] [µM] | also measured
1 | CC1CN(c2cncnc2)Cc2cc(NC(=O)Nc3cc(CN4CCN(C)CC4)cc(C(F)(F)F)c3)ccc21 (racemic) | > 10 | > 10 | > 10 | > 10 | –
2 | CC1CN(c2cncnc2)Cc2cc(C(=O)Nc3cc(N4CCN(C)CC4)cc(C(F)(F)F)c3)ccc21 (racemic) | > 10 | – | > 10 | 2.1 | –
3 | CC1CN(c2cncnc2)Cc2cc(C(=O)Nc3cc(CN(C)C)cc(C(F)(F)F)c3)ccc21 (racemic) | > 10 | – | > 10 | – | –
4 | CC1CN(c2cncnc2)Cc2cc(C(=O)Nc3cccc(C(F)(F)F)c3)ccc21 (racemic) | > 10 | – | > 10 | – | –
5 | C[C@H]1CN(c2cncnc2)Cc2cc(C(=O)Nc3cc(CN4CCN(C)CC4)cc(C(F)(F)F)c3)ccc21 | > 10 | – | – | – | –
6 | CC1CN(c2cncnc2)Cc2cc(C(=O)Nc3ccc(CN4CCN(C)CC4)c(C(F)(F)F)c3)ccc21 (racemic) | > 10 | – | 0.547 | 0.354 | –
7 | CN1CCN(Cc2cc(NC(=O)c3ccc4c(c3)CN(Cc3cncnc3)CC4)cc(C(F)(F)F)c2)CC1 | > 10 | > 10 | > 10 | > 10 | –
8 | CC1CN(c2cncnc2)Cc2cc(C(=O)Nc3cc(CN4CCOCC4)cc(C(F)(F)F)c3)ccc21 (stereo unspecified) | > 10 | – | > 10 | – | –
9 | CN1CCN(Cc2cc(NC(=O)c3ccc4c(c3)CN(c3cncnc3)CC4)cc(C(F)(F)F)c2)CC1 | > 10 | – | – | – | –
10 | CN1CCN(Cc2cc(NC(=O)c3ccc4c(c3)CN(c3cncnc3)CC4(C)C)cc(C(F)(F)F)c2)CC1 | > 10 | – | > 10 | – | –
11 | C[C@@H]1CN(c2cncnc2)Cc2cc(C(=O)Nc3cc(CN4CCCN(C)CC4)cc(C(F)(F)F)c3)ccc21 | > 10 | 0.167 | > 10 | 2.6 | –
12 | CC1CN(c2cncnc2)Cc2cc(C(=O)Nc3cc(C(F)(F)F)ccc3CN3CCN(C)CC3)ccc21 (stereo unspecified) | > 10 | 10 | > 10 | > 10 | –
13 | CC1CN(c2cncnc2)Cc2cc(C(=O)Nc3cc(CN4CCN(C)CC4)cc(C4CC4)c3)ccc21 (racemic) | > 10 | – | 9.9 | – | –
14 | CC1CN(c2cncnc2)Cc2cc(C(=O)Nc3cc(CN4CCN(C)CC4)cc(C(F)(F)F)c3)ccc21 (racemic) | > 10 | – | – | – | –
15 | CN1CCN(Cc2cc(NC(=O)c3ccc4c(c3)CN(c3ccncn3)CC4)cc(C(F)(F)F)c2)CC1 | > 10 | > 10 | > 10 | > 10 | –
16 | CC1CN(c2cncnc2)Cc2cc(C(=O)Nc3cc(CN4CCCCC4)cc(C(F)(F)F)c3)ccc21 (racemic) | > 10 | – | > 10 | – | –

Further lines, with some results ahead:

Row | IC50 [1] [µM] | IC50 [2] [µM] | IC50 (Bcr/Abl fusion protein) [µM] | IC50 [3] [µM] | Compound | also measured
17 | 2.5 | 0.0131 | 0.414 | 0.203 | CCc1ccc(C(=O)Nc2cc(CN3CCN(C)CC3)cc(C(F)(F)F)c2)cc1C#Cc1ccc2ccnn2c1 | –
18 | > 10 | > 10 | > 10 | > 10 | CC1CN(c2cncnc2)Cc2cc(C(=O)Nc3cccc(CN4CCN(C)CC4)c3)ccc21 (racemic) | –
19 | > 10 | 0.0807 | > 10 | 1.5 | CC1CN(c2cncnc2)Cc2cc(C(=O)Nc3cc(CCN4CCN(C)CC4)cc(C(F)(F)F)c3)ccc21 (racemic) | –
20 | > 10 | – | > 10 | – | CC1CN(c2cncnc2)Cc2cc(C(=O)Nc3cc(CN4CCCN(C)CC4)cc(C(F)(F)F)c3)ccc21 (racemic) | –
21 | > 10 | – | > 10 | – | CC1Cc2ccc(C(=O)Nc3cc(CN4CCN(C)CC4)cc(C(F)(F)F)c3)cc2CN1c1cncnc1 (racemic) | –
22 | > 10 | – | 10 | – | CC1CN(c2cncnc2)Cc2cc(C(=O)Nc3cc(CN4CCN(C)CC4)cc(-c4ccccc4)c3)ccc21 (racemic) | –
23 | > 10 | – | > 10 | 0.846 | CC1CN(c2cncnc2)Cc2cc(C(=O)Nc3cc(CN4CCN(C5CCCCC5)CC4)cc(C(F)(F)F)c3)ccc21 (racemic) | –
24 | > 10 | – | > 10 | – | CCc1cc(CN2CCN(C)CC2)cc(NC(=O)c2ccc3c(c2)CN(c2cncnc2)CC3C)c1 (racemic) | –
25 | > 10 | 0.0711 | > 10 | 0.944 | CCN1CCN(Cc2cc(NC(=O)c3ccc4c(c3)CN(c3cncnc3)CC4C)cc(C(F)(F)F)c2)CC1 (stereo unspecified) | –
26 | > 10 | 0.123 | > 10 | – | CC1CN(c2cncnc2)Cc2cc(C(=O)Nc3cc(CN4CCN(C)CC4)cc(C4CCCCC4)c3)ccc21 (racemic) | –
27 | > 10 | 0.0066 | 8.1 | 0.255 | C[C@H]1CN(c2cncnc2)Cc2cc(C(=O)Nc3cc(CN4CCCN(C)CC4)cc(C(F)(F)F)c3)ccc21 | inhibition (Peritoneal macrophage [4]): Dose-dependent effect; Kd [5]: 0.0022 µM; Activity [6]: Active; Activity (Mus musculus [7]): Dose-dependent effect; Activity (Mus musculus [8]): Active; inhibition [9]: 99.9%; Activity (Mus musculus [10]): Active; inhibition (Peritoneal macrophage [11]): Dose-dependent effect; Activity (Mus musculus [12]): Dose-dependent effect; Activity [13]: Active
28 | > 10 | – | > 10 | 2.6 | CC1CN(c2cncnc2)Cc2cc(C(=O)Nc3cc(CN4CCCC4)cc(C(F)(F)F)c3)ccc21 (racemic) | –
29 | > 10 | – | > 10 | – | CC1CN(c2cncnc2)Cc2cc(C(=O)Nc3cc(CN4CCSCC4)cc(C(F)(F)F)c3)ccc21 (racemic) | –
30 | > 10 | 0.0499 | 8.7 | 0.682 | CC(C)c1cc(CN2CCN(C)CC2)cc(NC(=O)c2ccc3c(c2)CN(c2cncnc2)CC3C)c1 (racemic) | –
31 | > 10 | – | 4.3 | – | CC1CN(c2cncnc2)Cc2cc(C(=O)Nc3cc(CN4CCN(C)CC4)cc(C(C)(C)C)c3)ccc21 (racemic) | –
